Assay results published in US11554103B2, “Compositions and methods to reduce pharmaceutical-induced toxicity” (priority 2016, dated 2023).
Entries after “also recorded” stand apart in the source; their conditions may differ.

Experiments:
[1] = tested on: substantia nigra pars compacta dopaminergic neurons; assay: Ex vivo brain slice mitochondrial oxidant stress, mito-roGFP probe, two photon microscopy; type: cell-based, mouse; conditions: for effect on methamphetamine-induced dendritic mitochondrial stress / effect on methamphetamine-induced axonal (terminal) mitochondrial stress: 10 μM methamphetamine; for effect on methamphetamine-induced dendritic mitochondrial stress / effect on methamphetamine-induced axonal (terminal) mitochondrial stress / effect on levodopa-induced dendritic mitochondrial stress / effect on levodopa-induced axonal (terminal) mitochondrial stress / basal mitochondrial stress, monoamine oxidase inhibitor alone: clorgyline 5 μM; for effect on levodopa-induced dendritic mitochondrial stress / effect on levodopa-induced axonal (terminal) mitochondrial stress: 100 μM levodopa; for basal mitochondrial stress, monoamine oxidase inhibitor alone: dendrites and axons; for effect on methamphetamine- and levodopa-induced mitochondrial stress: slices pre-incubated with the MAO inhibitor
Method: (§1) Animals and treatment paradigms: Male C57/B16 and TH-mitoroGFP (Guzman et al., 2010 Nature p. 696; incorporated by reference in its entirety) mice 5-8 wks of age were used for all imaging studies. In addition to the TH-mitoroGFP transgenic line, roGFP was virally delivered into the SNc of C57/B16 mice (either targeting cytosolic or mitochondrial compartments).
(§2) Two photon microscopy: Ex vivo slices of the dorsolateral striatum or SNc were prepared and redox status determined as previously described (Guzman et al., 2010 Nature p. 696; incorporated by reference in its entirety). […] The dynamic range of the probe was determined by perfusing 2 mM dithiothreitol (DTT) to fully reduce the probe and 200 μM aldrithiol to fully oxidize the probe; data presented as % relative oxidation.
Stereotaxic surgery: PCR amplified roGFP, mitoroGFP and IMSroGFP inserts were subcloned into pFB-TH-SV40pA vector between EcoR1 and SalI sites. After sequence and expression verification, pFB-TH-roGFP vectors were packaged into rAAVs using serotype 9 with titers 2.1-×10^13 viral genome copies/ml (Virovek). Mice were anesthetized using an isoflurane precision vaporizer (Smiths Medical PM) and placed in a stereotaxic frame (David Kopf Instruments) with a Cunningham adaptor (Harvard Apparatus) to maintain anesthesia delivery throughout surgery. After exposing the skull, a small hole was drilled and 350 nL of AAV9-TH-cytosolic roGFP or AAV9-TH-mitoroGFP delivered via a glass micropipette (Drummond Scientific Company) pulled on a Sutter P-97 puller. The substantia nigra pars compacta (SNc) was targeted at the following coordinates: AP: −3.05, ML: 1.20, and DV −4.30. All surgeries were performed in wild-type mice. Experiments in animals with stereotaxic delivery of AAV viral vectors were performed after at least 10 days post-op.
Ex vivo slice preparation: Mice were terminally anesthetized with a mixture of ketamine (50 mg/kg)/xylazine (4.5 mg/kg) and transcardially perfused with ice cold modified artificial cerebrospinal fluid (aCSF) containing in mM: 124.0 NaCl, 3.0 KCl, 1.0 CaCl2, 2.0 MgCl2, 26 NaHCO3, 1.0 NaH2PO4, and 16.66 glucose. Once perfused the brain was rapidly removed and either saggital or coronal slices containing the dorsolateral striatum (275 μm thick) or the SNc (220 μm thick) sectioned using a vibratome (VT1200S Leica Microsystems). Slices were transferred to a holding chamber containing normal aCSF containing in mM: 124.0 NaCl, 3.0 KCl, 2.0 CaCl2, 1.0 MgCl2, 26 NaHCO3, 1.0 NaH2PO4, and 16.66 glucose and allowed at least 30-40 minutes to recover prior to experiments. All solutions were pH 7.4, 310-320 mOsm and continually bubbled with 95% O2/5% CO2.
Ex vivo redox measurements and two photon microscopy: Oxidant stress was assessed using the redox sensitive roGFP probe targeted either to the cytosol or mitochondrial matrix as previously described.^10 Slices were transferred to a recording chamber and continuously perfused with normal aCSF at 32-34° C. Fluorescence was measured using an Ultima Laser Scanning Microscope system (Bruker) with a DODT contrast detector to provide bright-field transmission images with an Olympus 60/0.9NA lens. A two-photon laser (Chameleon Ultra II, Coherent Inc.) tuned to 920 nm was used to excite roGFP. Time series image acquisitions of the roGFP probe were obtained with 60 frames obtained over ˜20 seconds with 0.195 μm×0.195 μm pixels and 10-12 μsec dwell times. The dynamic range of the probe was determined with 2 mM dithiothreitol, a reducing agent, and 200 μM aldrithiol, an oxidizing agent, which were sequentially perfused and t-series acquired with each to determine the maximal and minimal fluorescence intensity. Test measurements were calculated as relative oxidation. T-series were analyzed offline and fluorescence measurements in multiple regions of interest evaluated with background subtracted.^10 Final data is presented as percent of control (aCSF perfusion).

[2] = tested on: human iPSC-derived dopamine neurons; assay: iPSC redox measurements (roGFP, one photon microscopy); type: cell-based; conditions: for axonal mitochondrial stress in the intermembrane space: 100 μM levodopa vs control, IMS-roGFP
From the text: Human iPSC culture and neural differentiation: The iPSC line was generated from skin fibroblasts of a healthy individual through retroviral expression of OCT4, SOX2, cMYC, KLF4 and previously clinically characterized.^23-25 Differentiation of iPSCs into midbrain dopaminergic neurons was done according to published protocols.^26 To help control neuralization variability, cells were passaged en bloc (size of 1-2 mm) between days 11 and 14, followed by plating onto poly-d-lysine (PDL)/laminin coated 10 cm dishes. Between days 25 and 30, neural blocks were passed by accutase treatment onto PDL/laminin coated culture dishes. Neuralization growth factors were withdrawn at day 40 and neurons were maintained in Neurobasal media (Life Technologies) containing Neurocult SM1 (Stemcell technologies).
iPSC redox measurements and one photon microscopy: Human iPSC-derived dopaminergic neurons were grown on 12 mm glass coverslips and imaged between 75 and 88 days post-differentiation. Two to four days before experimentation, dopaminergic neurons were infected with viral vectors targeting roGFP expression to mitochondrial matrix (AAV9-TH-mitoroGFP), mitochondrial intermembrane space (AAV9-TH-IMSroGFP),^17 or the cytosol (AAV9-TH-cytoroGFP)^7. Cultures were transferred to an imaging chamber mounted on an inverted epifluorescence microscope (Nikon TE300) with a 40×/1.35NA oil-immersion objective. The imaging chamber was superfused with aCSF at a flow rate of 1 ml/min. Imaging experiments were carried out at 31-33° C. Cells were illuminated by Polychrome V (TILL Photonics) and emissions were captured with a cooled CCD camera (Hamamatsu ImagEM) and Slidebook imaging software (Intelligent Imaging Innovations). Regions of interests in the dendrites or axon were selected for image analysis. […] Afterwards, neurons were perfused with 2 mM dithiothreitol for 20 min and then 100 μM aldrithiol for 20 min to obtain full roGFP dynamic range.^7

[3] = tested on: tyrosine hydroxylase positive cells in the SNc; assay: Methamphetamine 14 days plus 14 days withdrawal, stereology of tyrosine hydroxylase positive cells (Example 1); type: in vivo, mouse
Method: as §1
Stereology: Brains were fixed with 4% paraformaldehyde and serial coronal sections ([…]) were stained for tyrosine hydroxylase. Total number of tyrosine hydroxylase positive cells were counted in the SNc with the optical fractionator method (West et al., 1991 Anat Rec p. 482; Ilijic et al., 2011 Neurobiol Dis p. 364; incorporated by reference in their entireties).

[4] = tested on: substantia nigra pars compacta dopaminergic neurons; assay: Chronic in vivo methamphetamine administration for 28 days, stereology and striatal optical density (Example 2)
Method: Immunohistochemistry and stereological analysis: Mice were terminally anesthetized with a mixture of ketamine (50 mg/kg)/xylazine (4.5 mg/kg) and transcardially perfused with 4% paraformaldehyde, post-fixed overnight and cryoprotected in 30% sucrose/phosphate buffered saline (PBS) at 4° C. until use. Serial coronal sections (60 μm thick) were collected throughout the midbrain and striatum. To stain for tyrosine hydroxylase the anti-tyrosine hydroxylase polyclonal antibody (Millipore) 1:2000 followed by goat anti-rabbit IgG biotin conjugated antibody (Millipore) 1:500 with normal goat serum blocking solution was used; after antibody incubation and rinsing with PBS, sections were incubated with ABC Elite Kit (Vector) and processed for diaminobenzidine reaction. Slices were mounted on slides, allowed to dry overnight, dehydrated in ascending alcohol concentrations and mounted with DPX mountant (Sigma). The estimated number of tyrosine hydroxylase positive (TH^+) cells were stereologically counted as previously described.^27 Slices from DAT-Cre X Ai14 mice expressing TdTomato in dopaminergic neurons were mounted on slides, allowed to dry, and mounted with Prolong Gold antifade mountant (Invitrogen). The estimated number of tdTomato expressing cells were stereologically counted. Sampling for stereological quantification was done using an Olympus BX41 microscope with motorized stage (Applied Scientific Instrumentation) and computerized stereology software (Stereologer). The SNc was delineated in each animal in every other section and cells counted using a 40×/0.65NA Olympus lens.
Drug application in ex vivo brain slice or iPSC experiments was performed via perfusion in aCSF.

SNc dopaminergic neurons = assay: Pacemaking frequency in ex vivo slices; type: cell-based, mouse; conditions: 10 μM methamphetamine
[5] = tested on: substantia nigra pars compacta dopaminergic neurons; assay: Ex vivo brain slice cytosolic oxidant stress, cyto-roGFP probe, two photon microscopy; type: cell-based, mouse; conditions: bath application of 20 μM menadione
Method: as §1
as §2, with “oxidation. […]” for “oxidation.”
Ex vivo redox measurements and two photon microscopy: Oxidant stress was assessed using the redox sensitive roGFP probe targeted either to the cytosol or mitochondrial matrix as previously described.^10 Slices were transferred to a recording chamber and continuously perfused with normal aCSF at 32-34° C. Fluorescence was measured using an Ultima Laser Scanning Microscope system (Bruker) with a DODT contrast detector to provide bright-field transmission images with an Olympus 60/0.9NA lens. […] Test measurements were calculated as relative oxidation. […]

[6] = 5 mg/kg methamphetamine, 28 consecutive days
[7] = 1 mg/kg rasagiline pretreatment, 5 mg/kg methamphetamine
[8] = rasagiline 10 μM, listed as rasagaline

COC(=O)C1=C(C)NC(C)=C([N+](=O)[O-])C1c1ccccc1C(F)(F)F (stereo not drawn) [Bay K 8644]
axonal (terminal) mitochondrial stress ([1]; 10 μM drug alone, relative to control (aCSF), dorsolateral striatum slices): increased axonal mitochondrial stress

N[C@@H](Cc1ccc(O)c(O)c1)C(=O)O [levodopa, L-3,4-dihydroxyphenylalanine]
axonal mitochondrial stress (mitochondrial matrix roGFP) ([2]; 100 μM levodopa vs basal): increased axonal mitochondrial stress
dendritic mitochondrial stress (mitochondrial matrix roGFP) ([2]; 100 μM levodopa vs basal): increased
axonal mitochondrial stress in the intermembrane space [2]: increased axonal mitochondrial stress in the intermembrane space
axonal mitochondrial stress in the intermembrane space ([2]; listed as Levodopa): robustly increased oxidant stress within the intermembrane space
mitochondrial matrix oxidant stress in human dopaminergic neurons ([2]; levodopa): increased mitochondrial matrix oxidant stress in human dopaminergic neurons in a MAO-dependent manner

[Cl-].[K+] [KCl]
axonal mitochondrial stress ([1]; 15 mM KCl alone): not significantly altered
axonal mitochondrial stress ([1]; 30 mM KCl perfusion): increased axonal mitochondrial stress

C#CCN(C)CCCOc1ccc(Cl)cc1Cl [clorgyline]
effect on methamphetamine-induced dendritic mitochondrial stress ([1]; rasagiline 10 μM): prevented
effect on methamphetamine-induced axonal (terminal) mitochondrial stress ([1]; rasagiline 10 μM): attenuated; also recorded: prevented rises in mitochondrial stress
effect on levodopa-induced dendritic mitochondrial stress ([1]; rasagiline 10 μM): prevented
effect on levodopa-induced axonal (terminal) mitochondrial stress ([1]; rasagiline 10 μM): attenuated; also recorded: prevented rises in mitochondrial stress
basal mitochondrial stress, monoamine oxidase inhibitor alone ([1]; rasagiline 10 μM): Neither rasagiline nor clorgyline had any effect on basal mitochondrial oxidant stress; also recorded: had no effect on mitochondrial stress
effect on methamphetamine- and levodopa-induced mitochondrial stress [1]: attenuated; also recorded: diminished the mitochondrial redox effects of methamphetamine and levodopa

CNC(C)Cc1ccccc1 (stereo not drawn) [methamphetamine, N-methylamphetamine]
tyrosine hydroxylase positive (TH+) cells ([3]; 5 mg/kg methamphetamine for 14 days, sacrificed after 14 days withdrawal): loss of TH+ cells
tyrosine hydroxylase expressing neurons (TH+ neurons) in the SNc, stereological quantification ([4]; 5 mg/kg methamphetamine ip, 28 consecutive days): significantly decreased tyrosine hydroxylase (TH) immunoreactivity in the SNc; also recorded: loss of tyrosine hydroxylase expressing neurons
SNc axons in the striatum, optical density measurements [4, 6]: loss of tdTomato fluorescence in both the striatum and SNc neurons; also recorded: loss of SNc axons in the striatum
labeled (tdTomato) SNc neurons, Dat-Cre X Ai14 mice, stereological quantification [4, 6]: loss of tdTomato fluorescence in both the striatum and SNc neurons
pacemaking frequency (SNc dopaminergic neurons): attenuated

CC1=CC(=O)c2ccccc2C1=O [menadione]
cyto-roGFP oxidation state [5]: > 200 % above baseline

C#CCN[C@@H]1CCc2ccccc21 [rasagiline]
effect on methamphetamine-induced loss of TH+ cells ([3]; 1 mg/kg rasagiline, 30 min pretreatment, 5 mg/kg methamphetamine 14 days): prevented meth-induced loss of TH+ cells
effect on methamphetamine-induced loss of SNc neurons, Dat-Cre X Ai14 mice ([4]; 1 mg/kg rasagiline 30 min pretreatment, 5 mg/kg methamphetamine): significantly reduced degeneration in both the striatum and SNc; also recorded: prevented
effect on methamphetamine-induced loss of SNc axons in the striatum [4, 7]: significantly reduced degeneration in both the striatum and SNc; also recorded: prevented
effect on methamphetamine-induced loss of TH+ neurons [4, 7]: prevented
effect on d-amphetamine-induced axonal mitochondrial stress ([1]; 10 μM d-amphetamine, rasagiline 10 μM): prevented
effect on methamphetamine-induced dendritic mitochondrial stress ([1]; rasagiline 10 μM): prevented
effect on methamphetamine-induced axonal (terminal) mitochondrial stress ([1]; rasagiline 10 μM): attenuated
effect on methamphetamine-induced axonal (terminal) mitochondrial stress [1, 8]: prevented
effect on levodopa-induced dendritic mitochondrial stress ([1]; rasagiline 10 μM): prevented
effect on levodopa-induced axonal (terminal) mitochondrial stress ([1]; rasagiline 10 μM): attenuated
effect on levodopa-induced axonal (terminal) mitochondrial stress [1, 8]: prevented
basal mitochondrial stress, monoamine oxidase inhibitor alone ([1]; rasagiline 10 μM): Neither rasagiline nor clorgyline had any effect on basal mitochondrial oxidant stress; also recorded: had no effect on mitochondrial stress
effect on methamphetamine- and levodopa-induced mitochondrial stress [1]: attenuated
